From ChEMBL document CHEMBL5665443, “Enzyme Inhibitor Single Concentration assay results for EUbOPEN Chemogenomics Library” (2024) come the findings set out here.

The target of test [1] is T1, Endonuclease 8-like 2 (Homo sapiens) (UniProt Q969S2).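 Further: fluorescence at 594 nm reports NEIL2 cutting and release of a quenched double-stranded DNA oligo substrate, reduced signal read as inhibition.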
T1 sequence (whole entry): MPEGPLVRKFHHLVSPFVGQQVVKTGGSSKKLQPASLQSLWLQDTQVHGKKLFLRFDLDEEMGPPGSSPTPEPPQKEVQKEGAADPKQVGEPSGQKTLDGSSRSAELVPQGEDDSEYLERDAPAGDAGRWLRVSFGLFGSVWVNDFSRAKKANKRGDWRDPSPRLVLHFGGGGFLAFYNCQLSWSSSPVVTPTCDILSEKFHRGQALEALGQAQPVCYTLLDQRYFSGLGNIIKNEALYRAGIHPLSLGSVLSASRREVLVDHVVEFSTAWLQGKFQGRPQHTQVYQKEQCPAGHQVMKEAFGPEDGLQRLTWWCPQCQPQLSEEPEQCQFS
The settings on record: Compound Concentration 10.0 uM.
Description: Inhibition of NEIL2 by quantifying inhibition of NEIL2-mediated cleavage and dissociation of quenched duplex DNA oligonucleotides, measured as fluorescence at 594 nm.

Test [2] concerns the target T2, Adenine DNA glycosylase (Homo sapiens) (UniProt Q9UIF7).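 Further: human MUTYH activity read as 594 nm fluorescence from cleavage and release of a quenched DNA duplex, coupled with APE1 for strand incision, lower signal meaning inhibition.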
T2 sequence (whole entry): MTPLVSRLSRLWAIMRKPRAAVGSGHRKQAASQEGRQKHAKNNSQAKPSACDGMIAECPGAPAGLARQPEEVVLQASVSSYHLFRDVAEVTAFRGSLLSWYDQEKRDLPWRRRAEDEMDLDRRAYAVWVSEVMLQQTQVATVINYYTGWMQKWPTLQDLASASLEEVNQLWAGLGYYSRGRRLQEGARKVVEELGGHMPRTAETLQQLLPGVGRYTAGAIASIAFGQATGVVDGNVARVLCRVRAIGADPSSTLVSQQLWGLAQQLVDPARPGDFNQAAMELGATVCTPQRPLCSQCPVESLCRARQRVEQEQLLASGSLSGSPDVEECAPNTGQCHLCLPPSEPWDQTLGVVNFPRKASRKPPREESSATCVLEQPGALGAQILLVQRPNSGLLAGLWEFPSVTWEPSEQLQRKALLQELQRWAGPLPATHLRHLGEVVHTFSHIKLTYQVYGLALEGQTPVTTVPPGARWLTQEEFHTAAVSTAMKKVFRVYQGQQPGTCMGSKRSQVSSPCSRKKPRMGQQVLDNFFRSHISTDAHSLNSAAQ
The settings on record: Compound Concentration 10.0 uM, Hit No.
Description: Inhibition of MUTYH by quantifying inhibition of MUTYH-mediated cleavage and dissociation of quenched duplex DNA oligonucleotides, measured as fluorescence at 594 nm. To generate a functional strand incision and increase turn-over this assay is coupled to APE1.

In test [3] the target is Endonuclease 8-like 1 (Homo sapiens) (UniProt Q96FI4). To be noted: Compound Concentration 10.0 uM, Hit No.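 Further: fluorescence at 594 nm from quenched duplex DNA oligonucleotides released by NEIL1 cleavage and strand separation, reported as reduction of this enzyme activity.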
Chain of Endonuclease 8-like 1 (Homo sapiens) (Q96FI4 whole entry): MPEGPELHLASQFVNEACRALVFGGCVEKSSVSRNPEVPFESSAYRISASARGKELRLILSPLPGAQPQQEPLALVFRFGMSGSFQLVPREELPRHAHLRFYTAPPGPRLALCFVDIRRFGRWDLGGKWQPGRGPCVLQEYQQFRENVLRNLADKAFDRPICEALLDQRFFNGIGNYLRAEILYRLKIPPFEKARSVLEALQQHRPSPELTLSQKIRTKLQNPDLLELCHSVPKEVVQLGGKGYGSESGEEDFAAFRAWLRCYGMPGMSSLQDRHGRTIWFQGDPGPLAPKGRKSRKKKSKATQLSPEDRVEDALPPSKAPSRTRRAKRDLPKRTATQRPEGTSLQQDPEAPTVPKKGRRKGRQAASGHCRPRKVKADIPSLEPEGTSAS
Description: Inhibition of NEIL1 by quantifying inhibition of NEIL1-mediated cleavage and dissociation of quenched duplex DNA oligonucleotides, measured as fluorescence at 594 nm.
The target in test [4] is G/T mismatch-specific thymine DNA glycosylase (Homo sapiens) (UniProt Q13569). To be noted: Compound Concentration 10.0 uM, Hit No.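 Further: human TDG cleavage of quenched duplex DNA oligonucleotides coupled to APE1, strand release read as fluorescence at 594 nm, inhibition of TDG activity.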
Chain of G/T mismatch-specific thymine DNA glycosylase (Homo sapiens) (Q13569 whole entry): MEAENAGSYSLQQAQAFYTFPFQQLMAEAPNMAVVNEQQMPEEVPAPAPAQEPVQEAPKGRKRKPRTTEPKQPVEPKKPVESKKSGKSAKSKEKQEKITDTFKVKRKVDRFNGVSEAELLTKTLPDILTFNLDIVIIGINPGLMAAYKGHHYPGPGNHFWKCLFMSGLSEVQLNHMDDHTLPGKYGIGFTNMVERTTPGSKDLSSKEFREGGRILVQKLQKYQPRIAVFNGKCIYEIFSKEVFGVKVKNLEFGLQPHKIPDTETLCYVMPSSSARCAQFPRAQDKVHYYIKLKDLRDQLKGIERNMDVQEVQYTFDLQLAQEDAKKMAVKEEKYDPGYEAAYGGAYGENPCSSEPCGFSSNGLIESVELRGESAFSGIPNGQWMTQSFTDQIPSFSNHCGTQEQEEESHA
Description: Inhibition of TDG by quantifying inhibition of TDG-mediated cleavage and dissociation of quenched duplex DNA oligonucleotides, measured as fluorescence at 594 nm. To generate a functional strand incision and increase turn-over this assay is coupled to APE1.
The target of test [5] is N-glycosylase/DNA lyase (Homo sapiens) (UniProt O15527). To be noted: Compound Concentration 10.0 uM, Hit No.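 Further: OGG1 cleavage of a quenched duplex DNA oligonucleotide, coupled to APE1 for strand incision, read as fluorescence at 594 nm.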
Chain of N-glycosylase/DNA lyase (Homo sapiens) (O15527 whole entry, the tested form may be a part): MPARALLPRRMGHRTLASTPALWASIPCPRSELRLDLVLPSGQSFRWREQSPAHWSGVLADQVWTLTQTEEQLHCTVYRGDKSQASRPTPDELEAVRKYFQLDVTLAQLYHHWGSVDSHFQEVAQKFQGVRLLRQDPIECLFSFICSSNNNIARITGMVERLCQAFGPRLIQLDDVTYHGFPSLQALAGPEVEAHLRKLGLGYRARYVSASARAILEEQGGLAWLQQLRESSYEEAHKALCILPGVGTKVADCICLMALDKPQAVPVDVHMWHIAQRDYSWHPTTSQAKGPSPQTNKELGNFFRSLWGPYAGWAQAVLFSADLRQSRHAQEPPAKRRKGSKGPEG
Description: Inhibition of OGG1 by quantifying inhibition of OGG1-mediated cleavage and dissociation of quenched duplex DNA oligonucleotides, measured as fluorescence at 594 nm. To generate a functional strand incision and increase turn-over this assay is coupled to APE1.
Test [6] addresses Methyl-CpG-binding domain protein 4 (Homo sapiens) (UniProt O95243). The settings on record: Compound Concentration 10.0 uM.
Description: Inhibition of MBD4 by quantifying inhibition of MBD4-mediated cleavage and dissociation of quenched duplex DNA oligonucleotides, measured as fluorescence at 594 nm. To generate a functional strand incision and increase turn-over this assay is coupled to APE1.
The target in test [7] is T3, Single-strand selective monofunctional uracil DNA glycosylase (Homo sapiens) (UniProt Q53HV7).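 Further: enzymatic SMUG1 assay coupled with APE1, reading fluorescence at 594 nm released when a quenched double-stranded DNA oligonucleotide substrate is cleaved and separated.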
T3 sequence (whole entry): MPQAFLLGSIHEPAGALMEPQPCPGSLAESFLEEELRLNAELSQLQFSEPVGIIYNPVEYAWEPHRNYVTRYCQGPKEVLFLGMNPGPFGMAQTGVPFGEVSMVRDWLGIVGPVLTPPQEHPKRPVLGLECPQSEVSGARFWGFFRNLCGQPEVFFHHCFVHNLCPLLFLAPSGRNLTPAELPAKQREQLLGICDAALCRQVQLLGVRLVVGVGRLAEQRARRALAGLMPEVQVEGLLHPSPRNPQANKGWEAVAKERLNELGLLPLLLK
To be noted: Compound Concentration 10.0 uM, Hit No.
Description: Inhibition of SMUG1 by quantifying inhibition of SMUG1-mediated cleavage and dissociation of quenched duplex DNA oligonucleotides, measured as fluorescence at 594 nm. To generate a functional strand incision and increase turn-over this assay is coupled to APE1.

In test [8] the target is Uracil-DNA glycosylase (Homo sapiens) (UniProt P13051). The settings on record: Compound Concentration 10.0 uM, Hit No.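 Further: UNG excision on a quenched double-stranded DNA oligo probe, with APE1 added for strand incision and turnover, read as fluorescence at 594 nm as strands separate.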
Chain of Uracil-DNA glycosylase (Homo sapiens) (P13051 whole entry): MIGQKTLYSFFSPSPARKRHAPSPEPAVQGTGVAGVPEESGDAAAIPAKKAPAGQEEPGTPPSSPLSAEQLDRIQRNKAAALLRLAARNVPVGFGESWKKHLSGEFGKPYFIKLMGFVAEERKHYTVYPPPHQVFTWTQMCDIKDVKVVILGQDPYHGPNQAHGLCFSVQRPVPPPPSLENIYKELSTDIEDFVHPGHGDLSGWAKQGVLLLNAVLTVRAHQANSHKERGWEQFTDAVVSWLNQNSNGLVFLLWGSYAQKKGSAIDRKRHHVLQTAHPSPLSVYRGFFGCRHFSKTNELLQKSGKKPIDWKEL
Description: Inhibition of UNG by quantifying inhibition of UNG-mediated cleavage and dissociation of quenched duplex DNA oligonucleotides, measured as fluorescence at 594 nm. To generate a functional strand incision and increase turn-over this assay is coupled to APE1.
Test [9] has as its target T4, Endonuclease III-like protein 1 (Homo sapiens) (UniProt P78549).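 Further: enzyme assay tracking NTHL1 cutting and release of a quenched double-stranded DNA oligo substrate, read as fluorescence at 594 nm.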
T4 sequence (whole entry): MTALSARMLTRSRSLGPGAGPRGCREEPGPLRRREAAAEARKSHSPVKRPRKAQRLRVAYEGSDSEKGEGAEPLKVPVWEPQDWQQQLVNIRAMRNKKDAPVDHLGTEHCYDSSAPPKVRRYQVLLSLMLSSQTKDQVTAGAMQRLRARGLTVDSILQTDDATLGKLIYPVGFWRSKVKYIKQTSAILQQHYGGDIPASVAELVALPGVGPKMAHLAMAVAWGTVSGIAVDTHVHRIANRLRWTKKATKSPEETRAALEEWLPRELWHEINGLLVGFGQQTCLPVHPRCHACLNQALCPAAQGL
To be noted: Compound Concentration 10.0 uM, Hit No.
Description: Inhibition of NTHL1 by quantifying inhibition of NTHL1-mediated cleavage and dissociation of quenched duplex DNA oligonucleotides, measured as fluorescence at 594 nm.

Test [10] has as its target DNA-3-methyladenine glycosylase (Homo sapiens) (UniProt P29372). The settings on record: Compound Concentration 10.0 uM, Hit No.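 Further: enzyme assay where MPG cuts a quenched duplex DNA oligonucleotide probe, paired with APE1 for strand incision and turnover, read as fluorescence at 594 nm.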
Description: Inhibition of MPG by quantifying inhibition of MPG-mediated cleavage and dissociation of quenched duplex DNA oligonucleotides, measured as fluorescence at 594 nm. To generate a functional strand incision and increase turn-over this assay is coupled to APE1.

Molecules are shown by their SMILES.

Chain of Methyl-CpG-binding domain protein 4 (Homo sapiens) (O95243 whole entry, the tested form may be a part): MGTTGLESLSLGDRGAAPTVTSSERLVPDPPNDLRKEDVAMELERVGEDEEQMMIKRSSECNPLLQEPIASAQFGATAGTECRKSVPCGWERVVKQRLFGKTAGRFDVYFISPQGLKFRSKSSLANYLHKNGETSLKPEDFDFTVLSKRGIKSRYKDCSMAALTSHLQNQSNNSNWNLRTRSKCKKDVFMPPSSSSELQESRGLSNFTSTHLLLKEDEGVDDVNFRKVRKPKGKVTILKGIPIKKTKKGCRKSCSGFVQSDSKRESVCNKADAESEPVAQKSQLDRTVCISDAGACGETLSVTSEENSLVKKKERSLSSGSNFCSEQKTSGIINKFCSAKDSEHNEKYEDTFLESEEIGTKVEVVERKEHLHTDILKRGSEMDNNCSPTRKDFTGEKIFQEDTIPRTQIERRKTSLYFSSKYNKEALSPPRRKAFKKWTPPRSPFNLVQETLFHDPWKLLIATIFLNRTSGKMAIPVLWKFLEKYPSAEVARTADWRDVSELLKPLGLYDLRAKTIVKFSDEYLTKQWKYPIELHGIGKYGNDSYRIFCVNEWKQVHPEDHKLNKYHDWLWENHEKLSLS
Chain of DNA-3-methyladenine glycosylase (Homo sapiens) (P29372 whole entry): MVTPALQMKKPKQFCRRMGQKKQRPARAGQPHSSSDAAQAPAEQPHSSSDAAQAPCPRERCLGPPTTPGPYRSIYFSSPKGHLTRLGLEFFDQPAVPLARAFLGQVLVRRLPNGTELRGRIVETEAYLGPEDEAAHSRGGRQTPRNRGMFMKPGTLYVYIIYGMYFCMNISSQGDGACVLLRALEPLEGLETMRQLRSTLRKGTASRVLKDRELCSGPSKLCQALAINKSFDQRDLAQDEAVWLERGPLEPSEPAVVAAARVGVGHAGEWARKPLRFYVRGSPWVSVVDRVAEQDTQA

By inhibition is commonly meant the relative decrease from the control value, in per cent. On to `O=C(NCC(=O)N1CC[C@H](N[C@H]2CC[C@@](O)(c3ccc(-c4ncccn4)cn3)CC2)C1)c1cccc(C(F)(F)F)c1`, for which the inhibition in test [1] (Hit No) is 6.25%; in test [2], 10.3%; in [3], 2.76%; in [4], 24.3%; in [5], 1.04%; in test [6] (Hit No) it was -4.26%. In addition, the inhibition in [7] was 2.1%; in test [8] it was -9.06%; in test [9], 0.458%; in [10] it was -2.02%.
`Cc1ccnc(Nc2nc(-c3ccccn3)cs2)c1`: the inhibition was 9.84% in [1] (Hit No); 13.9% in test [2]; -0.88% in test [3]; 17.8% in test [4]; -1.19% in [5]; 9.11% in [6] (Hit No). The inhibition is 5.18% in test [7], -7.33% in [8], 17.1% in [9] and 16% in test [10].
On to `Cc1cccc([C@H]2CC[C@@H](N3CCN(c4cccnc4)CC3)CC2)c1` (mixture of isomers), for which the inhibition in [1] (Hit No) amounted to 9.59%; in test [2], 35.8%; in test [3] it was 1.34%; in [4] it was 47.1%; in test [5], 4.72%; in test [6] (Hit No) it was 56.1%. For the same molecule, the inhibition in test [7] was 15.5%; in test [8], 1.66%; in test [9] it was -0.258%; in test [10] it was 39%.
As to `O=[N+]([O-])c1ccc2nc(COCc3nc4ccc([N+](=O)[O-])cc4[nH]3)[nH]c2c1`, the inhibition is 2.2% in [1] (Hit No); 6.46% in test [2]; 12.5% in [3]; 27.1% in test [4]; 7% in [5]; 19.9% in test [6] (Hit No). The inhibition in test [7] is 4.96%; in test [8], 0.834%; in [9] it was 0.568%; in [10] it was 18.4%.
Take `CCCCc1nc2ccc(NC(=O)NC3CCCCC3)cc2n1Cc1ccc(-c2ccccc2C(=O)O)cc1`: the inhibition in [1] (Hit No) is 11%; in test [2] it was 38.2%; in [3], 9.29%; in [4], 33.1%; in test [5], -1.26%; in test [6] (Hit No) it was 30.2%. Further, the inhibition in [7] was -6.72%; in test [8], -9.57%; in test [9], 8.52%; in test [10], 24%.
As to `CCCCCC(O)/C=C/[C@H]1C(=O)CC(O)C1C/C=C\CCCC(=O)O` (stereo not given in full), the inhibition was determined as 41.2% in [1] (Hit Yes); 12.9% in [2]; 5.49% in test [3]; 32% in [4]; 8.62% in test [5]; 33.6% in [6] (Hit No). Moreover, the inhibition was -9.9% in [7], -3.89% in test [8], 12.9% in test [9] and 15.9% in test [10].
For the molecule `CC[C@H]1[C@@H](O)[C@@H]2[C@H](CC[C@]3(C)[C@@H]([C@H](C)CCC(=O)O)CC[C@@H]23)[C@@]2(C)CC[C@@H](O)C[C@@H]12`, the inhibition was found to be 1.55% in test [1] (Hit No); 24.4% in [2]; 1.53% in test [3]; 67.3% in test [4]; 26.2% in test [5]; 77.2% in [6] (Hit No). Further, the inhibition in test [7] is 27.8%; in [8], 5.49%; in test [9], 1.34%; in test [10] it was 17.5%.
Regarding `CCNC(=O)NS(=O)(=O)c1sc(CC(C)C)cc1-c1ccc(Cn2c(-c3ccccc3)nc(OC)c2C=O)cc1`, the inhibition came out at 7.29% in test [1] (Hit No); 90.4% in [2]; 12.3% in [3]; 64.7% in test [4]; 21.2% in test [5]; 78.6% in test [6] (Hit Yes). Further, the inhibition in [7] came out at 36.2%; in [8], 6.28%; in [9], 8.82%; in test [10] it was 51.7%.
Regarding `O=C(O)C[C@H]1CCc2c1[nH]c1ccc(OCc3ccc(C4CCCC4)c(C(F)(F)F)c3)cc21`, the inhibition is 0.515% in test [1] (Hit No); 9.75% in [2]; -9.84% in test [3]; 45% in [4]; 34.1% in test [5]; 47.5% in test [6] (Hit No). The inhibition in test [7] was -8.03%; in [8], -6.26%; in test [9], 36.4%; in test [10] it was 18.9%.
As to `COc1cc(Nc2ccnc3ccc(Br)cc23)cc(OC)c1OC`, the inhibition in test [1] (Hit No) came to 1.58%; in [2], 35%; in test [3], 10%; in test [4], 50.8%; in test [5], 14.7%; in test [6] (Hit No), 11.8%. The inhibition in test [7] was 26.8%; in test [8] it was 12.8%; in test [9], 0.785%; in [10], 34.4%.
Consider `Oc1cc2c(cc1O)CN(C(=S)NCCc1ccc(Cl)cc1)CCC2`, for which the inhibition is 6.53% in test [1] (Hit No); 73.8% in [2]; 12.2% in test [3]; 46.1% in [4]; -1.56% in [5]; 39.2% in [6] (Hit No). The inhibition in test [7] turned out to be 1.46%; in test [8], 3.52%; in test [9], 3.04%; in [10] it was 26.6%.
Regarding `C[C@@H](CN1CCC(Cc2ccccc2)CC1)[C@@H](O)c1ccc(O)cc1`, the inhibition in test [1] (Hit No) was 2.2%; in test [2] it was -7.47%; in [3] it was 3.42%; in test [4], -7.39%; in [5], -8.67%; in test [6] (Hit No) it was -0.918%. The inhibition in test [7] is 4.28%; in test [8] it was -6.48%; in test [9], 12.9%; in [10] it was -5.23%.
As for `O=C1NCN(c2ccccc2)C12CCN(CCCOc1ccc(F)cc1)CC2`, the inhibition is 2.26% in test [1] (Hit No); -5.23% in [2]; -1.54% in test [3]; 13.9% in test [4]; -4.77% in test [5]; 6.25% in test [6] (Hit No). Also, the inhibition is 13.1% in test [7], -6.4% in test [8], 4.86% in test [9] and -9.19% in test [10].
For the molecule `COc1cc(OC)c(NC(=O)Nc2cc(C)on2)cc1Cl`, the inhibition in test [1] (Hit No) is 3.98%; in test [2] it was -8.2%; in [3], -2.66%; in test [4], -8.88%; in test [5], -6.94%; in [6] (Hit No), -2.96%. The inhibition in test [7] was -8.83%; in test [8] it was -3.91%; in [9], 17.9%; in test [10], -9.71%.
On to `CCCn1c(=O)c2nc(C34CC5CC(CC3C5)C4)[nH]c2n(CCC)c1=O`, for which the inhibition is 12.2% in [1] (Hit No); 6.8% in test [2]; 5.88% in test [3]; 14.1% in test [4]; -1.3% in test [5]; 16.5% in test [6] (Hit No). For the same molecule, the inhibition in test [7] is 5%; in test [8], -9.84%; in [9], -8.34%; in [10], -7.5%.
